The values that follow come from patent publication US6969720B2, “Biaryl substituted purine derivatives as potent antiproliferative agents” (AMR Technology, Inc., priority 1999, dated 2005).

Each structure is given as a SMILES string. Values joined by “and” are separate entries in the source; they are usually repeats but may differ in a detail not shown here. Equal values may be shown once.

In one data set the test system is HeLa S-3 cells. The experiment in a line: Inhibition of cell growth (SRB), HeLa cells. The format is cell-based, human. Conditions: 2 days of treatment, sulforhodamine B, replicate experiments listed singly. On the procedure:
D. Measuring the Inhibition of Cell Growth
Growth inhibition (GI50) values were measured with HeLa S-3 cells selected for growth on plastic. […] One day later, a control plate was fixed by addition of TCA to 5%. After five rinses with tap water the plate was air dried and stored at 4° C. Test compounds were added to the remaining plates at 10-fold dilutions between 0.01 and 100 μM. Two days later all plates were fixed as described above. Cells were then stained by the addition of 100 μl per well of 0.4% sulforhodamine B (SRB) in 1% acetic acid for 30 min at 4° C. Wells were then quickly rinsed 5× with acetic acid (1%) and allowed to air dry. The SRB was then solubilized by the addition of 100 μl per well of unbuffered 10 mM Tris base. Dye was quantified by measuring absorbance at 490 nm on a Molecular Devices kinetic microplate reader. Growth at each inhibitor concentration relative to the untreated control was calculated according to the following equation: percent growth=100×(T−To)/(C−To), where T was the average optical density (OD) of the test wells after 2 days of treatment, To was the average OD of the wells in the control plate on day 0 and C was the average OD of untreated wells. Plots of percent growth versus inhibitor concentration were used to determine the GI50.

The next data set deals with implanted tumors. As to the kind of experiment: Efficacy study, implanted tumors. It is filed as in vivo, athymic mice. The note with it: IP. On the procedure: The efficacy study consists of three compound-treated groups (six mice/group), a positive control-treated group (six mice), and a vehicle-treated control group of 12 mice. Test compounds were administered IP under the treatment schedules listed above (qd×14 or q4d×3), whereas the positive control agent (Taxol) was administered intravenously (IV) at a dosage level of 15 mg/kg/dose for five consecutive days (qd×5). All agents were administered on the basis of individual animal body weight. Treatment began when the implanted tumors were approximately 100 mg in size (range of 65 to 200 mg). The mice were observed daily for survival. Each tumor was measured by caliper in two dimensions and converted to tumor mass using the formula for a prolate ellipsoid (a×b^2/2) and assuming unit density. Tumor measurements and animal body weights were recorded twice weekly. Antitumor activity was assessed by the delay in tumor growth of the treated groups in comparison to the vehicle-treated control group, partial and complete regressions, and tumor-free survivors.

For data set [1], the system named is Tumor Cells in Hollow Fibers. The experiment in a line: NCI Hollow Fiber Assay. It is filed as in vivo.

The term GI50 denotes the concentration giving 50% growth inhibition. Turning to `CC[C@H](CO)Nc1nc(NCc2ccc(-c3cccc(NC(C)=O)c3)cc2)c2ncn(C(C)C)c2n1` [Compound 5], the 50% growth inhibitory concentration (GI50) with HeLa S-3 cells was above 10000 nM. Take `CC(C)n1cnc2c(NCc3ccc(-c4ccsc4)cc3)nc(N[C@H]3CC[C@H](N)CC3)nc21` [Compound 12]: the T-C turned out to be 1.2 days with implanted tumors (0.27 mg/kg, q4d × 3); 0.2 days in the data set with implanted tumors (0.4 mg/kg, q4d × 3); 0.3 days in the data set on implanted tumors (0.6 mg/kg, q4d × 3).

Compound `CC(C)n1cnc2c(NCc3ccc(-c4ccc(F)c(Cl)c4)cc3)nc(N[C@H]3CC[C@H](N)CC3)nc21` [Compound 14] returned a 50% growth inhibitory concentration (GI50) in the data set on HeLa S-3 cells of 400 nM. Still for that read-out and setting: with `CC[C@H](CO)Nc1nc(NCc2ccc(-c3ccccn3)cc2)c2ncn(C(C)C)c2n1` [Compound 17] the figure was 600 nM and 300 nM; with `CC[C@H](CO)Nc1nc(NCc2ccc(-c3cccnc3)cc2)c2ncn(C(C)C)c2n1` [Compound 25], 2000 nM and 400 nM and > 1000 nM; with `C=Cc1ccc(-c2ccc(CNc3nc(N[C@H](CC)CO)nc4c3ncn4C(C)C)cc2)cc1` [Compound 33], 1000 nM and 2000 nM and 900 nM.

Compound `CC[C@H](CO)Nc1nc(NCc2ccc(-c3ccc(C(O)CO)cc3)cc2)c2ncn(C(C)C)c2n1` (some centres unmarked) [Compound 34] yielded a GI50 in the data set on HeLa S-3 cells of 6000 nM.

`CC[C@H](CO)Nc1nc(NCc2ccc(-c3ccc(OC)cc3)cc2)c2ncn(C(C)C)c2n1` [Compound 43] displayed a 50% growth inhibitory concentration (GI50) in the data set with HeLa S-3 cells of 8000 nM.

Take `CC(=O)N[C@H]1CCCC[C@@H]1Nc1nc(NCc2ccc(-c3ccccc3)cc2)c2ncn(C(C)C)c2n1` [Compound 60]: halving of growth with HeLa S-3 cells (GI50) required 6000 nM.

As for `CC(C)n1cnc2c(NCc3ccc(-c4ccccn4)cc3)nc(N[C@H]3CC[C@H](N)CC3)nc21` [Compound 78], the T-C in the data set on implanted tumors (0.33 mg/kg, qd × 14) is listed as 1.8 days; with implanted tumors (0.5 mg/kg, qd × 14), 0.8 days; with implanted tumors (1.0 mg/kg, q4d × 3), 1.1 days. The Tumor free/total is 0/6 in the data set with implanted tumors (0.33 mg/kg, qd × 14); 0/6 in the data set on implanted tumors (0.5 mg/kg, qd × 14); 0/6 in the data set with implanted tumors (1.0 mg/kg, q4d × 3). `CC(C)n1cnc2c(NCc3ccc(-c4ccccc4)cc3)nc(N[C@H]3CCCC[C@H]3NC(=O)Nc3ccccc3)nc21` [Compound 80] returned a GI50 in the data set with HeLa S-3 cells above 100000 nM.

On to `CC(C)n1cnc2c(NCc3ccc(-c4ccccc4)nc3)nc(N[C@H]3CC[C@H](N)CC3)nc21` [Compound 86], for which, in the data set on HeLa S-3 cells, halving of growth (GI50) required 30 nM. In other words, the double-digit nanomolar range. For the compound `CC(=O)N[C@H]1CC[C@H](Nc2nc(NCc3ccc(-c4ccccc4)nc3)c3ncn(C(C)C)c3n2)CC1` [Compound 87], the T-C in the data set with implanted tumors (10 mg/kg, q4d × 3) came to 2.9 days; in the data set with implanted tumors (15 mg/kg, q4d × 3), 2.5 days. Besides, the Tumor free/total in the data set with implanted tumors (10 mg/kg, q4d × 3) is recorded as 0/6; in the data set on implanted tumors (15 mg/kg, q4d × 3) it was 0/6.

In the data set on HeLa S-3 cells, `CC(C)n1cnc2c(NCc3ccc(-c4ccccn4)nc3)nc(N[C@H]3CC[C@H](N)CC3)nc21` [Compound 93] gave a GI50 of 80 nM. As for `CC(=O)N[C@H]1CC[C@H](Nc2nc(NCc3ccc(-c4ccccn4)nc3)c3ncn(C(C)C)c3n2)CC1` [Compound 94], the “Cell Types Killed” value in data set [1] was “COLO205, OVCAR-3, H522”. Besides, in the data set on HeLa S-3 cells, halving of growth (GI50) required 70 nM. `CC(=O)N[C@H]1CC[C@H](Nc2nc(NCc3ccc(-c4cccc(F)c4)cc3)c3ncn(C(C)C)c3n2)CC1` [Compound 96]: the GI50 in the data set with HeLa S-3 cells is 40 nM and 10 nM.

For `CC(C)n1cnc2c(NCc3ccc(-c4cccnc4)cc3)nc(N[C@H]3CC[C@H](N)CC3)nc21` [Compound 103], the “Cell Types Killed” value in data set [1] is “OVCAR 3, OVCAR 5,”. Also, in the data set with HeLa S-3 cells, the GI50 was 30 nM and 8 nM and 20 nM and 10 nM. In the case of `CC(=O)N[C@@H](C)CNc1nc(NCc2ccc(-c3ccccc3)cc2)c2ncn(C(C)C)c2n1` [Compound 108], the 50% growth inhibitory concentration (GI50) with HeLa S-3 cells was found to be 5000 nM.

In the case of `CC(=O)N[C@H]1CC[C@H](Nc2nc(NCc3ccc(-c4cccc(Cl)c4)cc3)c3ncn(C(C)C)c3n2)CC1` [Compound 110], in the data set on HeLa S-3 cells, the GI50 is 30 nM and 10 nM. What is called melting point is the temperature, or range, at which the solid turns liquid. Compound `CC(C)n1cnc2c(NCc3ccc(-c4cccs4)cc3)nc(N[C@H]3CC[C@H](N)CC3)nc21` [Compound 111] had a melting point of 109 to 110 °C. Regarding `CC(C)n1cnc2c(NCc3cccnc3)nc(N[C@@H]3CCCC[C@@H]3N)nc21` [Compound 126, reference compound], the 50% growth inhibitory concentration (GI50) with HeLa S-3 cells was 2000 nM and 4000 nM and 6000 nM. Regarding `Cn1cnc2c(NCc3ccc(-c4ccccc4)cc3)nc(N[C@H]3CC[C@H](N)CC3)nc21` [Compound 139], the melting point lay in the range of 182 to 184 °C. For `CC(=O)N[C@H]1CC[C@H](Nc2nc(NCc3ccc(-c4cc(C)cc(C)c4)cc3)c3ncn(C(C)C)c3n2)CC1` [Compound 150], growth with HeLa S-3 cells was halved (GI50) at 200 nM. Turning to `CC(=O)N[C@H]1CC[C@H](Nc2nc(NCc3ccc(-c4ccc(C)s4)cc3)c3ncn(C(C)C)c3n2)CC1` [Compound 158], the melting point is 225 to 230 °C. In the data set with HeLa S-3 cells, this compound gave a concentration for 50% growth inhibition (GI50) of 400 nM. Compound `Cc1csc(-c2ccc(CNc3nc(N[C@H]4CC[C@H](N)CC4)nc4c3ncn4C(C)C)cc2)c1` [Compound 160] showed a GI50 in the data set on HeLa S-3 cells of 300 nM. Compound `CC(=O)N[C@H]1CC[C@H](Nc2nc(NCc3ccc(-c4cc(C)cs4)cc3)c3ncn(C(C)C)c3n2)CC1` [Compound 161] came in with a melting point of 222 to 223 °C. The compound further came in with a GI50 in the data set on HeLa S-3 cells of 400 nM.

As for `CCCN[C@H]1CC[C@H](Nc2nc(NCc3ccc(-c4cc(C)cs4)cc3)c3ncn(C(C)C)c3n2)CC1` [Compound 162], the GI50 in the data set on HeLa S-3 cells was determined as 300 nM. Take `CC(C)n1cnc2c(NCc3ccc(-c4ccoc4)cc3)nc(N[C@H]3CC[C@H](N)CC3)nc21` [Compound 164]: the GI50 in the data set on HeLa S-3 cells worked out at 100 nM. `CC(=O)N[C@H]1CC[C@H](Nc2nc(NCc3ccc(-c4ccoc4)cc3)c3ncn(C(C)C)c3n2)CC1` [Compound 165] showed a melting point of 241 to 243 °C. Compound `CCCN(CCC)CCNc1nc(NCc2ccc(-c3ccccc3)cc2)c2ncn(C(C)C)c2n1` [Compound 210] returned a GI50 with HeLa S-3 cells of 4000 nM. That is a single-digit micromolar value. As to `CC(=O)NCCCNc1nc(NCc2ccc(-c3ccccc3)cc2)c2ncn(C(C)C)c2n1` [Compound 212], in the data set on HeLa S-3 cells, the GI50 came out at 3000 nM. Regarding `CCCNCCCCNc1nc(NCc2ccc(-c3ccccc3)cc2)c2ncn(C(C)C)c2n1` [Compound 215], the GI50 with HeLa S-3 cells was found to be 3000 nM.

Consider `CC(=O)N[C@H]1CC[C@H](Nc2nc(NCc3ccc(-c4cccc(CN)c4)cc3)c3ncn(C(C)C)c3n2)CC1` [Compound 223], for which, in the data set with HeLa S-3 cells, the GI50 is 40 nM and 100 nM.
